ChEMBL document CHEMBL1201862, “PubChem BioAssay data set” (2004)
Active and inactive are the calls of the source.

Key:
[1] = molecular target: ADP-ribosylation factor GTPase-activating protein 1 (Rattus norvegicus, UniProt Q62848); assay: Fluorescence polarization-based biochemical high throughput dose response screening assay to identify inhibitors of ADP-ribosylation factor GTPase activating protein 1 (ARFGAP1).; format: functional
Beta-lactamase [2] = molecular target: Beta-lactamase (Salmonella choleraesuis (strain SC-B67), UniProt Q5J463); assay: Epi-absorbance-based counterscreen for selective VIM-2 inhibitors: dose response biochemical high throughput screening assay to identify inhibitors of TEM-1 serine-beta-lactamase.
Chain of Beta-lactamase (Salmonella choleraesuis (strain SC-B67), UniProt Q5J463) (Q5J463 whole entry): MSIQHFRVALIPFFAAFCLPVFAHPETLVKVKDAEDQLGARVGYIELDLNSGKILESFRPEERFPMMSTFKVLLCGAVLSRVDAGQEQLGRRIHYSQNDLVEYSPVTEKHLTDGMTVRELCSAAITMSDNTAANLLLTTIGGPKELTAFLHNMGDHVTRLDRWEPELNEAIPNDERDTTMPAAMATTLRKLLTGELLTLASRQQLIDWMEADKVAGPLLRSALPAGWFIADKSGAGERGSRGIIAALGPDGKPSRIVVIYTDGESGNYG

Beta-lactamase [3] = molecular target: T1, Beta-lactamase (Pseudomonas aeruginosa, UniProt Q79MP6); assay: inhibition of IMP-1 beta-lactamase activity – biochemical, epi-absorbance, selectivity assay for VIM-2 inhibitor project, dose response (AID 1920)
T1 sequence (Q79MP6 whole entry): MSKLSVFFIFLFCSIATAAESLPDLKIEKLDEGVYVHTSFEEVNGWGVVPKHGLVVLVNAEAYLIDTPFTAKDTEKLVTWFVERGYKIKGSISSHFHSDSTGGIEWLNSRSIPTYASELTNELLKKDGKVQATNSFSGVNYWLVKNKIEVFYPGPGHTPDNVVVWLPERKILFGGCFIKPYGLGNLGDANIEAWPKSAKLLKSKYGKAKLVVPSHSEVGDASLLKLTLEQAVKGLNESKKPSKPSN

Beta Lactamase [4] = molecular target: T2, Beta Lactamase (Pseudomonas aeruginosa, UniProt Q932Y6); assay: concentration-dependent VIM-2 enzyme inhibition – biochemical, epi-absorbance readout, selective inhibitors, dose response (AID 1919)
T2 sequence (Q932Y6 whole entry): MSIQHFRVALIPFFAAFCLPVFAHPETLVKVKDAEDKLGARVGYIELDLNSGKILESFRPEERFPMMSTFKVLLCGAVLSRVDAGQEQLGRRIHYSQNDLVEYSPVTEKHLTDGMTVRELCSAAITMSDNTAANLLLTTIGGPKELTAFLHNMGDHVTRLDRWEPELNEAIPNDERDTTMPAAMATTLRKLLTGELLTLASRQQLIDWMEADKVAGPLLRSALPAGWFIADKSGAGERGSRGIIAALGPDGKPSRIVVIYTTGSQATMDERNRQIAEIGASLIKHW

Beta-lactamase [5] = molecular target: T1, Beta-lactamase; assay: […] counterscreen for selective VIM-2 inhibitors: dose response biochemical high throughput screening assay to identify inhibitors of IMP-1 metallo-beta-lactamase.
Beta Lactamase [6] = molecular target: T2, Beta Lactamase; assay: VIM-2 CCF2 hydrolysis inhibition, assay artifact filter – biochemical, FRET readout, CCF2 substrate, artefact control for selective VIM-2 inhibitor project, dose response (AID 1926)
[7] = molecular target: Tyrosine-protein phosphatase non-receptor type 11 (Homo sapiens, UniProt Q06124); assay: PTPN11 enzyme inhibitors – biochemical, selectivity assay for STEP inhibitor project, dose response (AID 602367); format: functional; details: read-out: IC50_Mean
[8] = molecular target: 26S proteasome non-ATPase regulatory subunit 14 (Homo sapiens, UniProt O00487); assay: inhibition of proteasome subunit RPN11 – biochemical, fluorescence polarization, uHTS hits, confirmation (AID 602368); format: functional
[9] = molecular target: Tyrosine-protein phosphatase non-receptor type 5 (Homo sapiens, UniProt P54829); assay: PTPN5 enzyme inhibition – biochemical, fluorescence intensity, uHTS hits, confirmation (AID 602372); format: functional; details: read-out: IC50_Mean
[10] = molecular target: 72 kDa type IV collagenase (Homo sapiens, UniProt P08253); assay: Dose Response validation of uHTS RPN11 inhibitor hits using a MMP-2 Fluorescence assay.; format: functional
[11] = molecular target: Dual specificity protein phosphatase 3 (Homo sapiens, UniProt P51452); assay: VHR phosphatase inhibition, dose response, selectivity assay for STEP inhibitor project, biochemical (AID 602374); format: functional; details: read-out: IC50_Mean
Prothrombin = Prothrombin (Bos taurus, UniProt P00735); assay: thrombin protease inhibitors – biochemical, fluorescence polarization, uHTS hits, dose response (AID 602369); format: functional
[12] = molecular target: T3, Tyrosine-protein phosphatase non-receptor type 22 (Homo sapiens, UniProt Q9Y2R2); assay: lymphoid phosphatase LYP inhibitors – biochemical, selectivity assay for STEP inhibitor project, dose response (AID 624241); format: functional
T3 sequence (Q9Y2R2 whole entry): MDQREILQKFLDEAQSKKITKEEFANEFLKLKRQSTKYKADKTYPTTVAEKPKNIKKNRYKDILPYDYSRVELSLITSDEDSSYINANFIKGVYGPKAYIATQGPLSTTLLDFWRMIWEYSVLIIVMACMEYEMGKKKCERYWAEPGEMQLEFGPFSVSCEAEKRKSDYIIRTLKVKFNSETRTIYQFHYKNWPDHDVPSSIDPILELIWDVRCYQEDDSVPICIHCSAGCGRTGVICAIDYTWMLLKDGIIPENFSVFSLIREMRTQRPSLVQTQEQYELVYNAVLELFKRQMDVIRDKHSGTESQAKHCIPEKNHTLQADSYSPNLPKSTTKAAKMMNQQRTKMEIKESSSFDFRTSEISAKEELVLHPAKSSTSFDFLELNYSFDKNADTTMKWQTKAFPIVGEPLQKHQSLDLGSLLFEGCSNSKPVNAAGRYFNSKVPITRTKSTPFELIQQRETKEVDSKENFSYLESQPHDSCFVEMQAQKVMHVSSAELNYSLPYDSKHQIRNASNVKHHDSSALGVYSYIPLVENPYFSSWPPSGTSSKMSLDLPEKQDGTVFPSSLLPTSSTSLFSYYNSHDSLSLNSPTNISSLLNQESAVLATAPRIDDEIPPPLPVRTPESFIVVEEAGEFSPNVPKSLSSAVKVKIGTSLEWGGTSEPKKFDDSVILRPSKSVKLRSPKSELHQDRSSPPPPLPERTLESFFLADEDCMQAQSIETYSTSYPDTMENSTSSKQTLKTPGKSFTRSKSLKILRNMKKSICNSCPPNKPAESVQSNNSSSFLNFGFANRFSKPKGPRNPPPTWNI

[13] = general mammalian cell viability loss – inhibitor set, cherry-pick, set 2, cytotoxicity control for miR-122 modulator project, dose response (AID 720697); format: functional, cell-based
[14] = general mammalian cell viability loss – activator set, cherry-pick, cytotoxicity control for miR-122 modulator project, dose response (AID 720690); format: functional, cell-based;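 note: HEK293T human cells scored for general mammalian cytotoxicity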
[15] = mouse fibroblast viability loss – cell-based, cherry-pick samples, set 2, cytotoxicity control for T. cruzi growth inhibitor project, dose response (AID 651817); format: functional; details: NIH3T3
[16] = activation of miR-122 Renilla sensor silencing – cell-based, Huh7 psiCHECK-miR122, Renilla luciferase, cherry-picked, dose response (AID 651956); format: functional;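 note: huh7 hepatoma cells stably carrying a psiCHECK-2 miR-122 sensor plasmid; renilla luciferase signal reporting endogenous miR-122 activity after 48 h compound exposure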
[17] = molecular target: T4, Methionyl-tRNA synthetase, putative (Trypanosoma brucei brucei, UniProt Q38C91); format: functional, Trypanosoma brucei brucei strain 927/4 GUTat10.1
T4 sequence (Q38C91 whole entry): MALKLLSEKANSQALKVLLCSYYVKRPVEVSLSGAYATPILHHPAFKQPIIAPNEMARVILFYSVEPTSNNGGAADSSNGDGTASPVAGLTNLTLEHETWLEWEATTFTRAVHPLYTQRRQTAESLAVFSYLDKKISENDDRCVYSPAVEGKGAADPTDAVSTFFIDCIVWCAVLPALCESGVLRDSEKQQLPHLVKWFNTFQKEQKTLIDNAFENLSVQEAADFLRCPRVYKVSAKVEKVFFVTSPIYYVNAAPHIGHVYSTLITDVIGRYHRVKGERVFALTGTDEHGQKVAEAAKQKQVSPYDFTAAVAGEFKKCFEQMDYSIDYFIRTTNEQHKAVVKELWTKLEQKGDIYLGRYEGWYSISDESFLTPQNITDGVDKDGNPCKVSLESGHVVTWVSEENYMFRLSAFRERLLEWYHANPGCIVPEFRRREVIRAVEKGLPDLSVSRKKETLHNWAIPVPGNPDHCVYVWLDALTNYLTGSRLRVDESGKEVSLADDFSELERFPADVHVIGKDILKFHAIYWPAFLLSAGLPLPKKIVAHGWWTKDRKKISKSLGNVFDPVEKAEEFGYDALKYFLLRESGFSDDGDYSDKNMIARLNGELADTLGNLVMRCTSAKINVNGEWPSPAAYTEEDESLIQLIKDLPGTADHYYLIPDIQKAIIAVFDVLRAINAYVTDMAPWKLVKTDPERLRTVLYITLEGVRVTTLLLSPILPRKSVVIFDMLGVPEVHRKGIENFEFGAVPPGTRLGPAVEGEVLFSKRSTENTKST

[18] = Counterscreen for inhibitors of Trypanosoma brucei methionyl tRNA synthetase (MetRS): Luminescence-based cell-based high throughput dose response assay to identify compounds that are cytotoxic to Jurkat human T lymphocyte cells.; format: functional
[19] = molecular target: T4, Methionyl-tRNA synthetase, putative; format: functional, Trypanosoma brucei brucei strain 927/4 GUTat10.1; remark: listed apart in the source
Fatty acid synthase [20] = molecular target: T5, Fatty acid synthase (Homo sapiens, UniProt P49327); assay: inhibition of human FAS-TE enzyme activity – biochemical, endpoint fluorescence intensity, uHTS hits, dose response (AID 624327); format: functional;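 note: fluorescence from hydrolysis of an O-methyl fluorescein acyl ester substrate by the enzyme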
T5 sequence (P49327 whole entry): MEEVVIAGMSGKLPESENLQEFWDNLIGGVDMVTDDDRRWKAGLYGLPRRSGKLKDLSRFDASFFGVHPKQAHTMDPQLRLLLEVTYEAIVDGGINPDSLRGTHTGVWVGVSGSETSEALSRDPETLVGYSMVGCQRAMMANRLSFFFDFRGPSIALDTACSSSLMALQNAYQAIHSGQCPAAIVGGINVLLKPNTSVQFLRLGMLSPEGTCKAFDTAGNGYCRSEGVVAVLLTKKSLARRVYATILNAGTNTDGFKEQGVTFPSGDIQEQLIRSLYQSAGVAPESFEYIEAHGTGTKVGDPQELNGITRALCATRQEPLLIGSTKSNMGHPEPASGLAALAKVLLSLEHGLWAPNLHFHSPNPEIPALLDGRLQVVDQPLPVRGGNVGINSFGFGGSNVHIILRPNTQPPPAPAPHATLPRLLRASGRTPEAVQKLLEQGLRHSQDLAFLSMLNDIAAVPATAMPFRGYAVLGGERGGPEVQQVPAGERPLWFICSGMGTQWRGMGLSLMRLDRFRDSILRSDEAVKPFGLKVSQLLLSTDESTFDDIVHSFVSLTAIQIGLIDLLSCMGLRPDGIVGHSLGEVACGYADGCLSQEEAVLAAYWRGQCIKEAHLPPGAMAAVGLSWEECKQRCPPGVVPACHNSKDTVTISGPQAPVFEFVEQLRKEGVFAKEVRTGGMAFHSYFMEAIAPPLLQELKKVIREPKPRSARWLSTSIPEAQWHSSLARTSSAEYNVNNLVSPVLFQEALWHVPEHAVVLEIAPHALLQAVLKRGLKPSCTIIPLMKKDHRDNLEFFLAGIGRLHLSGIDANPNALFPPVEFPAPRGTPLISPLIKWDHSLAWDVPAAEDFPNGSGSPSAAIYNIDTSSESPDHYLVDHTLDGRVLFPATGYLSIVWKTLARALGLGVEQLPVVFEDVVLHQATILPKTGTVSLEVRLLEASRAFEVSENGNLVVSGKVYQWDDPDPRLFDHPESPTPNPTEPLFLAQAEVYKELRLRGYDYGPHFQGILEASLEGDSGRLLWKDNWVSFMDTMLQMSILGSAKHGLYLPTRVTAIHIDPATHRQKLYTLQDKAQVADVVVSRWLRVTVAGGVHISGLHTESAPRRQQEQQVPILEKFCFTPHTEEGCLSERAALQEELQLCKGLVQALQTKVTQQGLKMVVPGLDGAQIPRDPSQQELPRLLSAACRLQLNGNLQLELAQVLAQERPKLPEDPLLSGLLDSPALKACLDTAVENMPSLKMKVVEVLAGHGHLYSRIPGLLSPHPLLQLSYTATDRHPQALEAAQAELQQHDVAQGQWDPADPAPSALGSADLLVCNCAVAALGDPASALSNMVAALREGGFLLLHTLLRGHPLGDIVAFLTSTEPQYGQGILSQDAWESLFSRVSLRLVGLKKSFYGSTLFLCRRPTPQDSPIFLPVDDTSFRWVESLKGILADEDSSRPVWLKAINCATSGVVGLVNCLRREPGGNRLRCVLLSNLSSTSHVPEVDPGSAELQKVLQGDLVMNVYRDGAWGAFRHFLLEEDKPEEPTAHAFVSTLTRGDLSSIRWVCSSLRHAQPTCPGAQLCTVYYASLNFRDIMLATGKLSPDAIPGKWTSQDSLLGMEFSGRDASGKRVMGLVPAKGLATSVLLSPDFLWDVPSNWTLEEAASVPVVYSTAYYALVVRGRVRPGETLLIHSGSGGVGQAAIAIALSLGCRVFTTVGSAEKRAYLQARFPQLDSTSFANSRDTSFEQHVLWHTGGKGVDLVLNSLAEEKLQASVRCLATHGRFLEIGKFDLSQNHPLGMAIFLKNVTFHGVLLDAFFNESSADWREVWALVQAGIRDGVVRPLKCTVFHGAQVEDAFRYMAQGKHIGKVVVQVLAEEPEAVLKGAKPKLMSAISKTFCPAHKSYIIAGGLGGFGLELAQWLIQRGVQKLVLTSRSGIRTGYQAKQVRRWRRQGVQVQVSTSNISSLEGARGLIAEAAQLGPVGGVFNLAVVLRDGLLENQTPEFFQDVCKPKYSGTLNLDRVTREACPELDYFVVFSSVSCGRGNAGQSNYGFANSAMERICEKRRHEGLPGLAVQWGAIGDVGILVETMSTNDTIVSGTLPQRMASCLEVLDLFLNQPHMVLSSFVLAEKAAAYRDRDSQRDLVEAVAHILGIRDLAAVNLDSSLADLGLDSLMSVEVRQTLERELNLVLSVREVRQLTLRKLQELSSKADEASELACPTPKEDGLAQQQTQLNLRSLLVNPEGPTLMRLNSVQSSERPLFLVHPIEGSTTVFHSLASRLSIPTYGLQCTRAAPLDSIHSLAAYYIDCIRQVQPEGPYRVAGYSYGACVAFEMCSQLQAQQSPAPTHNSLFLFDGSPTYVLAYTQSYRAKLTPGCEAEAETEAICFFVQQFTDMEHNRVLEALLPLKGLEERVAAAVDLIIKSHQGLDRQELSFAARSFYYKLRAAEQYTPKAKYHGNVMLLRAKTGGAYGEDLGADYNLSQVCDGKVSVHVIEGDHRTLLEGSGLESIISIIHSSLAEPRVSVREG

Fatty acid synthase [21] = molecular target: T5, Fatty acid synthase; assay: inhibition of human FAS-TE enzyme activity – biochemical, kinetic fluorescence intensity, dose response (AID 624326); format: functional;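 note: rate of fluorescence rise from hydrolysis of a fluorogenic O-methyl fluorescein ester substrate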
[22] = reduction of Shn3 3'UTR-driven luciferase in osteoblasts – cell-based, Clone20 osteoblasts, firefly luciferase, cherry-picked, dose response (AID 624132); format: functional;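 note: firefly luciferase luminescence from reporter carrying the Shn3 3'UTR in osteoblasts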
[23] = loss of viability in HepG2 cells – cell-based, CellTiter-Glo, cherry-picked, cytotoxicity control for Shn3 inhibitor project, dose response (AID 624134); format: functional
[24] = non-specific 3'UTR reporter inhibition in Clone20-Shn3RL – cell-based, Renilla luciferase, cherry-picked, counter-screen for Shn3 inhibitor project, dose response (AID 624133); format: functional
[25] = molecular target: T6, Protein disulfide-isomerase (Homo sapiens, UniProt P07237); assay: inhibition of PDI-driven insulin aggregation – biochemical, turbidity, absorbance, cherry-picked samples, dose response (AID 602350); format: functional
T6 sequence (P07237 whole entry, the tested form may be a part): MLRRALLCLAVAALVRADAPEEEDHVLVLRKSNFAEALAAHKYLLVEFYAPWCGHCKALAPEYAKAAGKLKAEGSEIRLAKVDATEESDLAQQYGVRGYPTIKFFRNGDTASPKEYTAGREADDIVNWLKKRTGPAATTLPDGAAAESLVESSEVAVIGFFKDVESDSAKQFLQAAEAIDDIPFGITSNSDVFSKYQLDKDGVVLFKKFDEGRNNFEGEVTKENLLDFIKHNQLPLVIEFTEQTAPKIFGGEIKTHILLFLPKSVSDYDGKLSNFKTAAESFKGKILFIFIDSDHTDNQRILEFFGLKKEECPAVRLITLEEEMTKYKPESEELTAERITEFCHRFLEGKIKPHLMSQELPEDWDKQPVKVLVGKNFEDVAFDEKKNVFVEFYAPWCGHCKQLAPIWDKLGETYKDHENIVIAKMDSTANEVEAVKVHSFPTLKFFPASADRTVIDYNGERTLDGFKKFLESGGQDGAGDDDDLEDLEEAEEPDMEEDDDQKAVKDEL

[26] = Fluorescence-based cell-based high throughput dose response assay for inhibitors of the interaction of nucleotide-binding oligomerization domain containing 2 (NOD2) and the receptor-interacting serine-threonine kinase 2 (RIPK2).; format: functional; details: Homo sapiens
Beta Lactamase [27] = molecular target: T2, Beta Lactamase; assay: BLA reporter interference, concentration series – BLA reporter cells, FRET fluorescence, artefact control for NOD2-RIPK2 interaction inhibitor project, dose response (AID 651552); format: functional, cell-based
[28] = molecular target: T6, Protein disulfide-isomerase; assay: inhibition of PDI-mediated insulin reduction – biochemical, turbidity, absorbance, cherry-picked samples, set 2, dose response (AID 624274); format: functional
Paired box protein Pax-8 = Paired box protein Pax-8 (Homo sapiens, UniProt Q06710); assay: PAX8 transcriptional activity inhibition in RMG-I – RMG-I cells, luciferase, cherry-pick, dose response (AID 687027); format: functional, cell-based;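 note: luciferase reporter driven by Pax8 target thyroperoxidase promoter measured by SteadyGlo luminescence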
Chain of Paired box protein Pax-8 (Q06710 whole entry): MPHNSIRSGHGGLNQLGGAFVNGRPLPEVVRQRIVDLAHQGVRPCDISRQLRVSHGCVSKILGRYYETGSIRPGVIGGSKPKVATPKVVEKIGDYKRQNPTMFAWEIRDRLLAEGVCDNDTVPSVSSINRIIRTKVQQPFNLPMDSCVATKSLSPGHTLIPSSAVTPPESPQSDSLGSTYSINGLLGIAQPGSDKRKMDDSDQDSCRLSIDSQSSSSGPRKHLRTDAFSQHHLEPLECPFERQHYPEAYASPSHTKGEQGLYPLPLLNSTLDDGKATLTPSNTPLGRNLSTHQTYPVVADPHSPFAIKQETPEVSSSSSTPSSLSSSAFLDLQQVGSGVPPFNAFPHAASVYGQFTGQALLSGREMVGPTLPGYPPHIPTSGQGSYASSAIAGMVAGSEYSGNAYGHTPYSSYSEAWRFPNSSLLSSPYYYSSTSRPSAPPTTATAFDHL

[29] = general cell-killing toxicity readout – plate reader, dry powder samples, cytotoxicity control for PAX8 inhibitor project, dose response (AID 743021); format: functional, cell-based
[30] = molecular target: T7, ATP-dependent translocase ABCB1 (Homo sapiens, UniProt P08183); assay: inhibition of BCRP-mediated JC-1 efflux – Ig-MXP3 cells, flow cytometry, set 2, dose response (AID 504566); format: functional; details: read-out: EC50_MICROM_;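 note: flow cytometry median green fluorescence of retained JC-1 dye; potency of efflux pump inhibition measured as rising substrate retention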
[31] = molecular target: T7, ATP-dependent translocase ABCB1; assay: P-gp JC-1 efflux blockade concentration-response – Jurkat-DNR cells, flow cytometry, set 2, dose response (AID 504569); format: functional; details: read-out: EC50_MICROM_;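 note: potency of pump inhibitors that raise cellular JC-1 green fluorescence up to the nicardipine level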

Compound: Cc1nc(NCc2ccc(S(N)(=O)=O)cc2)c2c(C)c(C)sc2n1
- IC50 [1]: 42.5 µM (inactive)

Compound: CCc1nnc(S)n1/N=C/C(C)=C\c1ccccc1
- IC50 (Beta-lactamase [2]): > 59.6 µM (inactive)
- IC50 (Beta-lactamase [3]): > 59.6 µM (inactive)
- IC50 (Beta Lactamase [4]): 1.23 µM (active)
- IC50 (Beta-lactamase [5]): > 59.6 µM (inactive)
- IC50 (Beta Lactamase [6]): 0.332 µM (active)

Compound: COc1cc(Cl)cc(/C=N\NC(=O)c2ccc3c(c2)OCO3)c1O
- IC50 [7]: 4.16 µM (active)
- IC50 [8]: 21.5 µM (active)
- IC50 [9]: 9.73 µM (active)
- IC50 [10]: > 100 µM (inactive)
- IC50 [11]: 5.02 µM (active)
- IC50 (Prothrombin): 65.6 µM (active)
- IC50 [12]: > 100 µM (inactive)
- AC50 [13]: 5.99 µM (active)
- AC50 [14]: 16.6 µM (active)

Compound: C[C@@H]1CN([C@@H](C)CO)C(=O)c2cccc(NC(=O)Nc3ccc(C(F)(F)F)cc3)c2O[C@@H]1CN(C)Cc1ccc(Cl)c(Cl)c1
- AC50 [15]: 14.2 µM (active)

Compound: C[C@@H]1CN([C@@H](C)CO)C(=O)c2cc(C#CC3CCCCC3)cnc2O[C@H]1CN(C)S(=O)(=O)c1cccc(F)c1
- AC50 [16]: 13.9 µM (active)
- AC50 [14]: 24.6 µM (active)

Compound: Cc1ccc(NC(=O)CN(C)C(=O)c2ccc(Cl)c([N+](=O)[O-])c2)cc1
- IC50 [17]: 17.9 µM (inactive)
- IC50 [18]: 56.7 µM (inactive)
- IC50 [19]: 8.63 µM (active)
- IC50 (Fatty acid synthase [20]): 7.6 µM (active)
- IC50 (Fatty acid synthase [21]): 6.26 µM (active)

Compound: CS(=O)(=O)c1ccc(C(=O)OCC(=O)N2CCN(CCC3CCCCC3)CC2)cc1[N+](=O)[O-]
- AC50 [22]: 2.41 µM (active)
- AC50 [23]: 8.73 µM (active)
- AC50 [24]: 5.81 µM (active)
- AC50 [25]: < 0.009 µM (active)
- IC50 [26]: 1.84 µM (active)
- IC50 (Beta Lactamase [27]): 11.6 µM (inactive)
- AC50 [28]: 0.009 µM (active)
- AC50 (Paired box protein Pax-8): 6.68 µM (active)
- AC50 [29]: 27 µM (active)

Compound: COc1cccc(-c2cc(N3CCN(C(=O)c4ccoc4)CC3)n3nc(-c4cccc(Cl)c4)cc3n2)c1
- AC50 [22]: 6.22 µM (active)
- AC50 [23]: 49 µM (active)
- AC50 [24]: > 70 µM (inactive)
- EC50 [30]: 0.76 µM (active)
- EC50 [31]: 2.89 µM (active)
